The source of these data is patent US20240067651A1 (Biohaven Therapeutics Ltd., priority 2019, published 2024).

Read-outs that look alike come from different tables or passages of the source. A value given as a limit tells only on which side of the number the result lay.

One data set concerns Caco-2 monolayer. In words: Caco-2 Permeability Assay. The format is in vitro ADME, human. The method, boiled down:
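Caco-2 monolayers cultured 21 days (TEER >600 […]); test article at 10 μM in HBSS/HEPES pH 7.4 transport medium, dosed apical or basolateral, ±Pgp inhibitor. Incubated 90 min at 37 °C; both compartments quantified by LC-MS/MS. Papp (A→B, B→A), efflux ratio and % recovery calculated.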
(Caco-2 monolayers are a common model of the intestinal barrier.)

Data set [1] is described as follows: Stability in Simulated Gastric Fluid (SGF). The format is in vitro ADME. The arrangement: key: % parent compound remaining relative to 0-minute sample. In outline:
(§1)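 Compound at 2 μg/mL final was incubated at 37 °C with shaking in SGF with pepsin (pH 1.2) or SIF with pancreatin (pH 6.8), sampled from 0 to 60 min. After acetonitrile precipitation, LC-MS/MS gave % parent remaining vs 0 min; half-life came from ln(% remaining) vs time.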

Data set [2] in a line: Stability in Simulated Intestinal Fluid (SIF). The format is in vitro ADME. The arrangement: key: % parent compound remaining relative to 0-minute sample. The method, boiled down:
as §1

Another data set is described as follows: Plasma Stability. The format is in vitro ADME, human. The method, boiled down: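 Compounds incubated at 1 μM in fresh human plasma for 1 hour at 37° C, then protein-precipitated with acetonitrile/formic acid containing internal standard. Remaining parent measured by LC-MS/MS in triplicate, expressed as percent of control remaining.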
[3] abbreviates: simulated gastric fluid, remaining at 1 h.
The mark [4] stands for this setting: simulated intestinal fluid, remaining at 1 h.
[5] abbreviates: % remaining after 1 h in simulated gastric fluid.
Where [6] appears, read: % remaining after 1 h in simulated intestinal fluid.
Setting [7] is: % remaining after 1 h in human plasma.

Regarding “bis (trifluoroacetic acid) 5-{[2-({[(5-{[(2S)-2-amino-4-methylpentanoyl]oxy}penta-noyl)oxy]methyl}sulfanyl)-4-oxo-1-[2-(propan-2-yloxy)ethyl]-1H,4H,5H-pyrrolo[3,2-d]pyrimidin-5-yl]methoxy}-5-oxopentyl (2S)-2-amino-4-methylpentanoate [Example 346]”, in the data set on Caco-2 monolayer (Caco-2), the “Caco-2 Papp” value was below 0.0623 ×10⁻⁶ cm/s. In addition, in data set [1] (% remaining @ 1 h), the SGF was 97% remaining. In addition, the SIF in data set [2] (% remaining @ 1 h) was 7% remaining. In addition, the “human Plasma stability” value in the data set “Plasma Stability” (% remaining @ 1 h) was found to be 98% remaining.
Consider “tert-butyl 3-(2-{[{{4-oxo-1-[2-(propan-2-yloxy)ethyl]-2-sulfanylidene-1H,2H,3H,4H,5H-pyrrolo[3,2-d]pyrimidin-5-yl}methoxy)carbonyl]oxy}eth-oxy)propanoate [Example 392]”, for which, in the data set with Caco-2 monolayer (Caco-2 monolayer), the “Caco-2 Papp” value stood at 0.12 ×10⁻⁶ cm/s. In data set [1] (setting [3]), the SGF is given as 95% remaining. The SIF in data set [2] (setting [4]) is given as 71% remaining. For the same substance, the “human Plasma stability” value in the data set “Plasma Stability” (human plasma, remaining at 1 h) was 1% remaining.
Turning to “tert-butyl N-[2-(2-{[(1-{4-oxo-1-[2-(propan-2-yloxy)ethyl]-2-sulfanylidene-1H,2H,3H,4H,5H-pyrrolo[3,2-d]pyrimidin-5-yl}ethoxy)carbonyl]amino}eth-oxy)ethyl]carbamate [Example 375]”, the “Caco-2 Papp” value with Caco-2 monolayer (Caco-2 monolayer) is below 0.175 ×10⁻⁶ cm/s. In data set [1] (setting [3]), the SGF is on record as 89% remaining. In addition, the SIF in data set [2] (setting [4]) is on record as 99% remaining. Moreover, the “human Plasma stability” value in the data set “Plasma Stability” (human plasma, remaining at 1 h) was determined as 99% remaining.
Turning to “tert-butyl N-[2-(2-{[{{4-oxo-1-[2-(propan-2-yloxy)ethyl]-2-sulfanylidene-1H,2H,3H,4H,5H-pyrrolo[3,2-d]pyrimidin-5-yl}methoxy)carbonyl]amino}ethoxy) ethyl]carbamate [Example 372]”, the “Caco-2 Papp” value in the data set with Caco-2 monolayer (Caco-2 monolayer) worked out at 11.7 ×10⁻⁶ cm/s. In data set [1] (setting [3]), the SGF is on record as 85% remaining. Also, the SIF in data set [2] (setting [4]) was 60% remaining. Also, the “human Plasma stability” value in “Plasma Stability” (human plasma, remaining at 1 h) came out at 0% remaining.
In the same order, the values of “trifluoroacetic acid ({4-oxo-1-[2-(propan-2-yloxy)ethyl]-1H,4H,5H-pyrrolo[3,2-d]pyrimidin-2-yl}sulfanyl)methyl N-[2-(2-aminoethoxy)ethyl]carbamate [Example 374]” are 9.06 ×10⁻⁶ cm/s, 75% remaining, 94% remaining and 82% remaining.
With “trifluoroacetic acid {4-oxo-1-[2-(propan-2-yloxy)ethyl]-2-sulfanylidene-1H,2H,3H,4H,5H-pyrrolo[3,2-d]pyrimidin-5-yl}methyl (2R)-1-[2-(2-aminoacetamido)acetyl]pyrrolidine-2-carboxylate [Example 406]”, in the data set with Caco-2 monolayer (Caco-2 monolayer), the “Caco-2 Papp” value stood at 3.42 ×10⁻⁶ cm/s. Also, in data set [1] (setting [5]), the SGF is 88% remaining. The SIF in data set [2] (setting [6]) is recorded as 71% remaining. Also, in “Plasma Stability” (setting [7]), the “human Plasma stability” value is reported as 0% remaining.
In the case of “trifluoroacetic acid {4-oxo-1-[2-(propan-2-yloxy)ethyl]-2-sulfanylidene-1H,2H,3H,4H,5H-pyrrolo[3,2-d]pyrimidin-5-yl}methyl N-[2-(2-aminoethoxy)ethyl]carbamate [Example 373]”, the “Caco-2 Papp” value in the data set with Caco-2 monolayer (Caco-2 monolayer) is 0.123 ×10⁻⁶ cm/s. The SGF in data set [1] (setting [3]) is reported as 90% remaining. The SIF in data set [2] (setting [4]) was 72% remaining. The “human Plasma stability” value in the data set “Plasma Stability” (human plasma, remaining at 1 h) is 68% remaining.
Consider “{4-oxo-1-[2-(propan-2-yloxy)ethyl]-2-sulfanylidene-1H,2H,3H,4H,5H-pyrrolo [3,2-d]pyrimidin-5-yl}methyl 2-[(2S)-2-(benzoyloxy)-N,3-dimethylbutanamido]acetate [Example 401]”, for which, in the data set on Caco-2 monolayer (Caco-2 monolayer), the “Caco-2 Papp” value was 0.43 ×10⁻⁶ cm/s. For the same substance, in data set [1] (setting [5]), the SGF is given as 90% remaining. For the same substance, the SIF in data set [2] (setting [6]) was 8% remaining. Besides, in “Plasma Stability” (setting [7]), the “human Plasma stability” value stood at 0% remaining.
The matching figures for “{4-oxo-1-[2-(propan-2-yloxy)ethyl]-2-sulfanylidene-1H,2H,3H,4H,5H-pyrrolo[3,2-d]pyrimidin-5-yl}methyl 2-[2-(2-{[(tert-butoxy)carbonyl]amino}acetamido)-N-methylacetamido]acetate [Example 407]”: 14.6 ×10⁻⁶ cm/s, 98% remaining, 1% remaining and 0% remaining.
In the same order, the values of “{4-oxo-1-[2-(propan-2-yloxy)ethyl]-2-sulfanylidene-1H,2H,3H,4H,5H-pyrrolo[3,2-d]pyrimidin-5-yl}methyl 2-[2-(acetyloxy)-N-methylacetamido]acetate [Example 400]” are 0.242 ×10⁻⁶ cm/s, 99% remaining, 26% remaining and 89% remaining.
Take “{4-oxo-1-[2-(propan-2-yloxy)ethyl]-2-sulfanylidene-1H,2H,3H,4H,5H-pyrrolo[3,2-d]pyrimidin-5-yl}methyl 2-{[(tert-butoxy)carbonyl](methyl)amino}acetate [Example 395]”: the “Caco-2 Papp” value with Caco-2 monolayer (Caco-2 monolayer) was 14.4 ×10⁻⁶ cm/s. Further, the SGF in data set [1] (setting [5]) is given as 97% remaining. Moreover, the SIF in data set [2] (setting [6]) is 23% remaining. Besides, in “Plasma Stability” (setting [7]), the “human Plasma stability” value was determined as 1% remaining.
Regarding “{4-oxo-1-[2-(propan-2-yloxy)ethyl]-2-sulfanylidene-1H,2H,3H,4H,5H-pyrrolo[3,2-d]pyrimidin-5-yl}methyl (2R)-2-{[(tert-butoxy)carbonyl]amino}propanoate [Example 291]”, in the data set with Caco-2 monolayer, the “Caco-2 Papp” value is 21.9 ×10⁻⁶ cm/s. For the same substance, the SGF in data set [1] (% remaining @ 1 h) is on record as 66% @ 1 h. Further, the SIF in data set [2] (% remaining @ 1 h) was 30% @ 1 h. Also, the “human Plasma stability” value in “Plasma Stability” (% remaining @ 1 h) is 0% @ 1 h.
